Results on 7 molecules are retold here after article PMC6199744, “Development of Chemical Proteomics for the Folateome and Analysis of the Kinetoplastid Folateome” (ACS Infectious Diseases, 2018).

Each structure is given as a SMILES string. Like-named read-outs stand apart in the source and are kept apart here.

Common to all, as to format: binding
Experiment [1] deals with T1, HeLa cell extract proteins (Homo sapiens, UniProt Q13126).
T1 construct: endogenous in cells; host or cells: HeLa cell extract
T1 sequence (Q13126 1-283): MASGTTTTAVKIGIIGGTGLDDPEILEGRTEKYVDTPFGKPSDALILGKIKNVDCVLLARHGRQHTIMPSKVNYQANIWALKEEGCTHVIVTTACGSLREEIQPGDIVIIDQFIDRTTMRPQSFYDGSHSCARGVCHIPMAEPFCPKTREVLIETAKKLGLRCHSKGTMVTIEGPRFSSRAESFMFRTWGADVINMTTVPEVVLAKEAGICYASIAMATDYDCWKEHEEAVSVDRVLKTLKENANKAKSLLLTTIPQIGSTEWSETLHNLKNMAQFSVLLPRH

Experiment [2] has as its target T2, HeLa cell extract proteins (Homo sapiens, UniProt Q6YN16).
T2 construct: endogenous in cells; host or cells: HeLa cell extract
T2 sequence (Q6YN16 1-418): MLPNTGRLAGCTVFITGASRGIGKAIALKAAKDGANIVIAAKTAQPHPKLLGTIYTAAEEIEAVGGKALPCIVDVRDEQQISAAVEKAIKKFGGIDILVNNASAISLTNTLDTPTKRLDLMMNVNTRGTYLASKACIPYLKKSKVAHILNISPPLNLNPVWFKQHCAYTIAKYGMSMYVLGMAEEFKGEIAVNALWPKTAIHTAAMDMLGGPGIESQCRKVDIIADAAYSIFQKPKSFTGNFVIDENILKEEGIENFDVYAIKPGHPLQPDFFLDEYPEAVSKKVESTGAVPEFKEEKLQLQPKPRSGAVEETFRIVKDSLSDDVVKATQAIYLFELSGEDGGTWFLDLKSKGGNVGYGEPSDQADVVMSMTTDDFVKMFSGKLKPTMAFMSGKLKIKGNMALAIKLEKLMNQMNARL

Experiment [3] has as its target T3, HeLa cell extract proteins (Homo sapiens, UniProt P67775).
T3 construct: endogenous in cells; host or cells: HeLa cell extract

For experiment [4], the target named is T4, HeLa cell extract proteins (Homo sapiens, UniProt O14818).
T4 construct: endogenous in cells; host or cells: HeLa cell extract
T4 sequence (O14818 1-248): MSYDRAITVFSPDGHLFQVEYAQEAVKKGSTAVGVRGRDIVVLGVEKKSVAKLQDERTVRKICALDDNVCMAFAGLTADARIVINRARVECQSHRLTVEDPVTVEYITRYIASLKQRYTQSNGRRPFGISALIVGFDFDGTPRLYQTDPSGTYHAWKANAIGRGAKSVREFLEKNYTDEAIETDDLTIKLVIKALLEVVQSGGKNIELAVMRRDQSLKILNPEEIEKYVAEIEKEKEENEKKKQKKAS

Experiment [5] addresses T5, HeLa cell extract proteins (Homo sapiens, UniProt Q13085).
T5 construct: endogenous in cells; host or cells: HeLa cell extract

Experiment [6] has as its target T6, HeLa cell extract proteins (Homo sapiens, UniProt P09972).
T6 construct: endogenous in cells; host or cells: HeLa cell extract
T6 sequence (P09972 1-364): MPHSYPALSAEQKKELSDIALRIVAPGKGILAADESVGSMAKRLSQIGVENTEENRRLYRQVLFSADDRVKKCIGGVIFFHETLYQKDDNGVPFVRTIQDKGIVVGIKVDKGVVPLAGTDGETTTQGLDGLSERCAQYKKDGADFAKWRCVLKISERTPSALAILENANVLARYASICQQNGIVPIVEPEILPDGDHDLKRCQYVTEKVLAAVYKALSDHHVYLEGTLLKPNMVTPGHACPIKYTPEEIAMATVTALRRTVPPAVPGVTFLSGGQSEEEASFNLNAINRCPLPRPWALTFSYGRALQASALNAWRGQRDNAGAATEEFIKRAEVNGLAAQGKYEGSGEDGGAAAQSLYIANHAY

Experiment [7] has as its target T7, HeLa cell extract proteins (Homo sapiens, UniProt P16219).
T7 construct: endogenous in cells; host or cells: HeLa cell extract
T7 sequence (P16219 25-412): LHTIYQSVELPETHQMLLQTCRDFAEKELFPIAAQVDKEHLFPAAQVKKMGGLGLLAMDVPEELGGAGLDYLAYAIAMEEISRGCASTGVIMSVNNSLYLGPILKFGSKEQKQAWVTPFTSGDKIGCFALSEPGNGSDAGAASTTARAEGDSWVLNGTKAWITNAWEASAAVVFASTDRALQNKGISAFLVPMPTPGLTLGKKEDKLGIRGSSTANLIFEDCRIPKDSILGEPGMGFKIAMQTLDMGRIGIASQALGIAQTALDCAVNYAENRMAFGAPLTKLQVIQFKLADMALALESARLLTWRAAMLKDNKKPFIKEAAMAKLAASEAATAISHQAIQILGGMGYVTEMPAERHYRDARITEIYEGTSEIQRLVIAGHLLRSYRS

The target of experiment [8] is T8, HeLa cell extract proteins (Homo sapiens, UniProt Q96CN7).
T8 construct: endogenous in cells; host or cells: HeLa cell extract
T8 sequence (Q96CN7 1-298): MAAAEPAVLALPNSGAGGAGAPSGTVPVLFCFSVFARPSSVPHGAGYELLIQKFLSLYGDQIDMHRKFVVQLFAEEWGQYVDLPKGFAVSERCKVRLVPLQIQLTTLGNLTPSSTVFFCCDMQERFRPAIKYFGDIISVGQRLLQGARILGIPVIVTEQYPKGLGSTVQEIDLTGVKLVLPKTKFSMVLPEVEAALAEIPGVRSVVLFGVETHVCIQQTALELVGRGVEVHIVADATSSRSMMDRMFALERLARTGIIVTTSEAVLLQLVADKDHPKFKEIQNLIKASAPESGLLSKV

Setting [9] is: HeLa, protein ACADS (SHORT-CHAIN SPECIFIC ACYL-COA DEHYDROGENASE, MIT[…]).
Setting [10] is: HeLa, protein ALDOC (FRUCTOSE-BI[…] C.).

T3 sequence (P67775 whole entry): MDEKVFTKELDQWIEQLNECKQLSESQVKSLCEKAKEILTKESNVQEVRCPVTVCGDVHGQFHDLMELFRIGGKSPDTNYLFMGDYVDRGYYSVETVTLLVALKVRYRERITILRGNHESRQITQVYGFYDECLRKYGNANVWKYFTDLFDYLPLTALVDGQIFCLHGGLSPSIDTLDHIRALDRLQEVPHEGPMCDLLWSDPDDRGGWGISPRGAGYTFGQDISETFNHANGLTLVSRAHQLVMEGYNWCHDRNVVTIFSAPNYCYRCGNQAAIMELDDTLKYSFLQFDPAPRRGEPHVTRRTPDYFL

Consider `Nc1nc2c(c(=O)[nH]1)N(C=O)C(CNc1ccc(C(=O)N[C@@H](CCC(=O)O)C(=O)O)cc1)CN2` (some centres unmarked) [LEU, leucovorin], for which the “fold changes relative to vehicle control” value in experiment [1] (HeLa, captured protein MTAP) came to 1.13; in experiment [2] (HeLa, protein HSDL2), 0.96; in experiment [3] (HeLa, captured protein PPP2CA), 0.95; in experiment [4] (HeLa, captured protein PSMA7), 1.08; in experiment [5] (HeLa, captured protein ACACA) it was 1.02; in experiment [6] (HeLa, protein ALDOC), 0.9. Moreover, the “fold changes relative to vehicle control” value in experiment [7] (setting [9]) is 1.06; in experiment [8] (HeLa, captured protein ISOC1), 1.09.

As for `Nc1nc2[nH]cc(CCc3ccc(C(=O)N[C@@H](CCC(=O)O)C(=O)O)cc3)c2c(=O)[nH]1` [PTX, pemetrexed], the “fold changes relative to vehicle control” value in experiment [1] is listed as 0.98; in experiment [2], 0.96; in experiment [3] it was 0.93; in experiment [4], 1.03; in experiment [5], 1.05; in experiment [6] it was 1.04. In addition, the “fold changes relative to vehicle control” value in experiment [7] turned out to be 1.09; in experiment [8], 0.99.

As for `CCCCCCOc1ccc(Cc2cnc(N)nc2N)cc1` [compound 1], the “fold changes relative to vehicle control” value is listed as 0.9 in experiment [1] (protein MTAP, HeLa); 1.11 in experiment [2] (protein HSDL2, HeLa); 0.87 in experiment [3] (HeLa, protein PPP2CA); 1.13 in experiment [4] (protein PSMA7, HeLa); 1.09 in experiment [5] (protein ACACA, HeLa); 1.49 fold in experiment [6] (setting [10]). Further, the “fold changes relative to vehicle control” value in experiment [7] (protein ACADS, HeLa) amounted to 0.91; in experiment [8] (protein ISOC1, HeLa), 1.08.

For the molecule `CCCCCCOc1cccc(Cc2cnc(N)nc2N)c1` [compound 2], the “fold changes relative to vehicle control” value is given as 0.78 in experiment [1] (protein MTAP, HeLa); 1.23 in experiment [2] (protein HSDL2, HeLa); 1.02 in experiment [3] (HeLa, protein PPP2CA); 1.3 in experiment [4] (protein PSMA7, HeLa); 1.06 in experiment [5] (protein ACACA, HeLa); 2.35 fold in experiment [6] (HeLa, protein ALDOC (FRUCTOSE-BISPHOSPHATE ALDOLASE C.)). Besides, the “fold changes relative to vehicle control” value came out at 1.1 in experiment [7] (protein ACADS, HeLa) and 1.01 in experiment [8] (protein ISOC1, HeLa).

Regarding `Nc1nc2cccc(-c3ccccc3)c2n1Cc1ccc(Cl)c(Cl)c1` [compound 3], the “fold changes relative to vehicle control” value turned out to be 0.99 in experiment [1] (protein MTAP, HeLa); 0.96 in experiment [2] (protein HSDL2, HeLa); 0.91 in experiment [3] (HeLa, protein PPP2CA); 1.07 in experiment [4] (protein PSMA7, HeLa); 1.04 in experiment [5] (protein ACACA, HeLa); 1.23 fold in experiment [6] (setting [10]). Besides, the “fold changes relative to vehicle control” value was found to be 0.99 in experiment [7] (protein ACADS, HeLa) and 1.03 in experiment [8] (protein ISOC1, HeLa).

In the case of `NCCOCCOCC(=O)Nc1nc2ncc(CNc3ccc(C(=O)NC(CCC(=O)O)C(=O)O)cc3)nc2c(=O)[nH]1` (centres unmarked) [compound 6], the “fold changes relative to vehicle control” value stood at 0.95 in experiment [1] (HeLa, captured protein MTAP); 1.04 in experiment [2] (HeLa, protein HSDL2); 0.91 in experiment [3] (HeLa, captured protein PPP2CA); 1.02 in experiment [4] (HeLa, captured protein PSMA7); 1.12 in experiment [5] (HeLa, captured protein ACACA); 1.06 in experiment [6] (HeLa, protein ALDOC). The “fold changes relative to vehicle control” value in experiment [7] (setting [9]) turned out to be 1.07; in experiment [8] (HeLa, captured protein ISOC1) it was 1.11.

As to `NCCCNc1ccc(C(=O)NC(CCC(=O)O)C(=O)O)cc1` (centres unmarked) [compound 7], the “fold changes relative to vehicle control” value in experiment [1] (HeLa, captured protein MTAP) was determined as 1.01; in experiment [2] (HeLa, protein HSDL2), 1.02; in experiment [3] (HeLa, captured protein PPP2CA), 0.97; in experiment [4] (HeLa, captured protein PSMA7) it was 0.93; in experiment [5] (HeLa, captured protein ACACA), 1.17; in experiment [6] (HeLa, protein ALDOC), 1.12. Also, the “fold changes relative to vehicle control” value is 1.04 in experiment [7] (setting [9]) and 1.04 in experiment [8] (HeLa, captured protein ISOC1).
